Results on 5 compounds are retold here after patent US10975056B2 (GlaxoSmithKline Intellectual Property Development Limited, priority 2016, dated 2021).

pEC50, pIC50: −log10 of the molar value. Like-named read-outs stand apart in the source and are kept apart here.

The subject of experiment [1] is erythroid progenitor cells. Conditions: cited from earlier work.
For experiment [2], the system named is patients with sickle cell anemia, sickle cell disease and beta-thalassemia. As to conditions: limited set of clinical studies; cited from earlier work.
The target in the next experiment is DNMT3B (Homo sapiens (Human), UniProt Q9UBC3). As to the kind of experiment: DNMT3B breaklight assay. It is filed as biochemical. As to conditions: read-out: DNMT3B Breaklight IC50.
For experiment [3], the system named is erythroid progenitor cells (EPCs). As to the kind of experiment: Fetal hemoglobin (HbF) ELISA in day 7 erythroid progenitor cells.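 Further: for fetal hemoglobin induction normalized to vehicle-treated cells.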 Format: cell-based, human. Conditions: Homo sapiens, Erythroid progenitor cell, HbF ELISA, day 7 EPCs, 5 days; read-out: EPC ELISA (pEC50 category) (converted). Summed up:
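Read-out was OD450 from an HRP/TMB sandwich ELISA on lysates, normalized to DMSO-only control wells. Thawed day 7 EPCs from human marrow CD34+ cells had been treated for 5 days at 37° C with Compound A, 22 concentrations […].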
(In general: In an ELISA, binding on a coated surface is turned into a signal by an enzyme label.)

The subject of the next experiment is MV-4-11 AML cells. As to the kind of experiment: MV-4-11 cell proliferation assay (CellTiter-Glo, 6 days). It is filed as cell-based. As to conditions: Homo sapiens, MV4-11, 144 h; 6 days treatment; binning as pXC50; read-out: MV4-11 Anti-proliferative activity (EC50 category). The procedure:
MV-4-11 Anti-Proliferative Activity (pEC50 Category)
Cell proliferation assay. Optimal cell seeding density was determined empirically for MV-4-11 AML cells by examining the growth of a wide range of seeding densities in a 384-well format to identify conditions that permitted maximal and continued proliferation for 6 days. MV-4-11 cells were plated in duplicate plates 24 hours before treatment with a 20-point two-fold dilution series of compound or 0.15% DMSO. Plates were incubated for 6 days at 37° C. in 5% CO2. Cells were then lysed with CellTiter-Glo (CTG) (Promega) and chemiluminescent signal was detected with an appropriate microplate reader. In addition, an untreated plate of cells was harvested at the time of compound addition (T0) to quantify the initial cell density. CTG values obtained after 6 days of treatment were expressed as a percent of the T0 value and plotted against compound concentration. Data were fit with a four parameter equation to generate a concentration response curve from which growth IC50 values were calculated.

In the next experiment the target is DNMT1 (Homo sapiens, UniProt P26358). As to the kind of experiment: DNMT1 biochemical activity, breaklight assay and/or SPA assay.
Sequence of DNMT1 (P26358 whole entry, looked up): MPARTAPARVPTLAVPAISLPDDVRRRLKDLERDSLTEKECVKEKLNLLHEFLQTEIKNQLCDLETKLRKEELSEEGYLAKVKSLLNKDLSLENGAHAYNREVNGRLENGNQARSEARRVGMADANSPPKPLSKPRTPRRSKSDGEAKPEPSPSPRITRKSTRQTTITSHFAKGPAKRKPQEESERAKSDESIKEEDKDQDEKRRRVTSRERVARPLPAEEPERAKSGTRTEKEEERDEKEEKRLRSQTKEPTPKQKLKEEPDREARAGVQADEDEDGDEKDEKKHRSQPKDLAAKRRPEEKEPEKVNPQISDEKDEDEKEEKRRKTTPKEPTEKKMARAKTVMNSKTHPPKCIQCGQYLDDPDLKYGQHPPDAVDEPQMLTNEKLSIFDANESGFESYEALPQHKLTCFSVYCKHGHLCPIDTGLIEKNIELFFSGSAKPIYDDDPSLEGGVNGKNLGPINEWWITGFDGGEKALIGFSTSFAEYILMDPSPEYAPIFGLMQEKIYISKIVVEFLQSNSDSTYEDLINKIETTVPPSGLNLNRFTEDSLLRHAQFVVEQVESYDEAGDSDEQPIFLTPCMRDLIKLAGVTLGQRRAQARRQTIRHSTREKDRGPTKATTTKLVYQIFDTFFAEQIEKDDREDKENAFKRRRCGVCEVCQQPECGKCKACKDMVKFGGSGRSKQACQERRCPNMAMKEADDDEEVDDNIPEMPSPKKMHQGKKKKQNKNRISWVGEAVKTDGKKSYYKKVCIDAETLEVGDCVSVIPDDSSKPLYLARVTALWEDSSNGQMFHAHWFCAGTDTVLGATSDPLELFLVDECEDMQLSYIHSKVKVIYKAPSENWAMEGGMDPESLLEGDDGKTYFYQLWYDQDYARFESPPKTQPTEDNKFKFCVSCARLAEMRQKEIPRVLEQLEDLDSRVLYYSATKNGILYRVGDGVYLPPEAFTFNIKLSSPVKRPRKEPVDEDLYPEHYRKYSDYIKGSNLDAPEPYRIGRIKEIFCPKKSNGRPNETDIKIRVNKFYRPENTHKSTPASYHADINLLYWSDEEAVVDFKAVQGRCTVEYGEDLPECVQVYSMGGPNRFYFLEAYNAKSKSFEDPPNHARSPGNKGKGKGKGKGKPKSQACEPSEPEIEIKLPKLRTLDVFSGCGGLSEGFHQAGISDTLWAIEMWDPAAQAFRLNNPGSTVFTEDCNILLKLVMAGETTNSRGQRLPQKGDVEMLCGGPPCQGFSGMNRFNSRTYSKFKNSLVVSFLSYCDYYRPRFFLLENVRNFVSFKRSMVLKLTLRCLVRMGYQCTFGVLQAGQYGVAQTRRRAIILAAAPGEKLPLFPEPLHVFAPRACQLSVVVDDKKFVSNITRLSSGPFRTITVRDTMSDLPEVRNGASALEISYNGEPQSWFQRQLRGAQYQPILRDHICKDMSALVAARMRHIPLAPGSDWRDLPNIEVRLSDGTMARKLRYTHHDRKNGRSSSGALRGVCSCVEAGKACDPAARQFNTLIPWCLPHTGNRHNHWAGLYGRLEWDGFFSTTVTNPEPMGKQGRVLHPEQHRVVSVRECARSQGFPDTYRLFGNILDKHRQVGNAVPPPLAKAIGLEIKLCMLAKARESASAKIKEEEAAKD
The target of a further experiment is human DNMT3a/3l (Homo sapiens (Human), UniProt Q9Y6K1). As to the kind of experiment: DNMT3a/3l breaklight assay. Format: biochemical. Conditions: read-out: DNMT3A Breaklight IC50. The procedure: DNMT3a/3l Breakliqht Assay
Sequence of human DNMT3a/3l (Q9Y6K1 whole entry, looked up): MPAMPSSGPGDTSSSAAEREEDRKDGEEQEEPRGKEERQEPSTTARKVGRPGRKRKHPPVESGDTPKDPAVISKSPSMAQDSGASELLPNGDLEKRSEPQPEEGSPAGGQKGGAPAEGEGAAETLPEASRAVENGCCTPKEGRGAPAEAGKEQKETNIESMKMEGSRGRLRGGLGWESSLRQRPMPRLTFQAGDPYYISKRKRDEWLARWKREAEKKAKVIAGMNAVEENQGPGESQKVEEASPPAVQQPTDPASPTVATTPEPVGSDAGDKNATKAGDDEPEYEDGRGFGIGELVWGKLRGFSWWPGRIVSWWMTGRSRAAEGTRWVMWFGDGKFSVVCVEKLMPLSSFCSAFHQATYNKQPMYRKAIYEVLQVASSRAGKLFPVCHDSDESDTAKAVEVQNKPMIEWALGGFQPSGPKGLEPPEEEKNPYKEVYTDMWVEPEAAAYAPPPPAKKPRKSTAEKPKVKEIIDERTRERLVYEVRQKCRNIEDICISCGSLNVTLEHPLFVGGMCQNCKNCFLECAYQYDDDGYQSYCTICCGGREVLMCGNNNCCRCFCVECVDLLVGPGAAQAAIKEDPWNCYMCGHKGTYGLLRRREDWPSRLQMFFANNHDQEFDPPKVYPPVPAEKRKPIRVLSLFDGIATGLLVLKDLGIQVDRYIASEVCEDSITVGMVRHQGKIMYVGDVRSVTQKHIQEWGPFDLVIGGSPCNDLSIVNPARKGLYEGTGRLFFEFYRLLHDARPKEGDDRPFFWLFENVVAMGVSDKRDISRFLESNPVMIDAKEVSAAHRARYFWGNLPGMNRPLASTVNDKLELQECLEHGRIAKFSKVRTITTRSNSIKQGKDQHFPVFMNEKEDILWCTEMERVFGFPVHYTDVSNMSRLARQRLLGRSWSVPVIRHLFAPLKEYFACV
Sequence of human DNMT3a/3l (Q9UJW3 whole entry partner, looked up): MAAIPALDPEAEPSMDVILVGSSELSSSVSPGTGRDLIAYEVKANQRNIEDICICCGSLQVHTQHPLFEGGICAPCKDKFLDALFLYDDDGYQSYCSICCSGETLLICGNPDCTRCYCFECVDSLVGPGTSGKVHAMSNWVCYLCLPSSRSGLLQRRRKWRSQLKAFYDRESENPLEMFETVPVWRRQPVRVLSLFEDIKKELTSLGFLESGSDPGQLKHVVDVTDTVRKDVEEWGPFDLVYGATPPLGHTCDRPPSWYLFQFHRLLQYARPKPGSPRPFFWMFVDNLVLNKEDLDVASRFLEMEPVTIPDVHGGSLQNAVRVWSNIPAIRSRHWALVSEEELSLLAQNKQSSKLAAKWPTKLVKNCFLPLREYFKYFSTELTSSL
DNMT3a/3l breaklight in vitro assays were conducted in a total volume of 50 μl in a standard 384 well format, using black non-binding surface microplates (Corning #3575). […] Negative control wells used 5 μl of DNMT3a/3l and 5 μl of oligonucleotide but also included 200 μM SAH. All reagents were made up in 1× assay buffer (20 mM Tris pH 7.4, 100 mM NaCl, 1.5 mM EDTA, 0.1 mM MgCl2, 1 mM CHAPS and 1 mM DTT). The reaction was incubated at 37° C. for 90 min and then stopped with the addition of 40 μl detection reagent. Detection reagent, made up in 1× Gla assay buffer (20 mM Tris pH 8.0, 80 mM NaCl, 0.75 mM MgCl2, 0.01% Triton X100 and 1 mM DTT) has a final concentration of 200 μM SAH (Sigma #A9384) and 0.0008 units/μl Gla1 restriction endonuclease (Sibenzyme #E494). Following addition of the detection reagent the plate was incubated in the dark at room temperature for 5 hr. Fluorescence intensity was then measured on the PHERAstar FS (BMG Labtech) at Ex 485 nm and Em 520 nm, with a gain of 400 and an integration time of 100 ms.

In the case of `Nc1ncn([C@@H]2O[C@H](CO)[C@@H](O)[C@H]2O)c(=O)n1` [5-azacytidine], in experiment [1], the “induction of fetal hemoglobin” value was “known inducers of fetal hemoglobin”. The “fetal hemoglobin in patients” value in experiment [2] is listed as “caused increases in fetal hemoglobin”.
For the compound `CCc1c(C#N)c(S[C@@H](C(N)=O)c2ccccc2)nc(N(C)C)c1C#N` [Example 64, (R)-2-((3,5-dicyano-6-(dimethylamino)-4-ethylpyridin-2-yl)thio)-2-phenylacetamide], the pIC50 at DNMT3B was less than 3.30. The EC50 in experiment [3] was less than 316 nM. Further, the pEC50 with MV-4-11 AML cells was 6.00 to 6.50.
On to `N#Cc1c(SC(C(N)=O)c2ccccc2)nc(N2CCOCC2)c(C#N)c1C1CC1` (stereo not drawn) [Example 130, 2-[(3,5-Dicyano-4-cyclopropyl-6-morpholino-2-pyridyl)sulfanyl]-2-phenyl-acetamide], for which the pIC50 at DNMT3B and on human DNMT3a/3l was less than 3.30 throughout. For the same compound, in the experiment with MV-4-11 AML cells, the pEC50 was 4.50 to 6.00. Further, the IC50 is 316 to 1000 nM on DNMT1 (binned activity in either the breaklight or the SPA assay, read-out: DNMT1 BioChemical (pIC50 category) (converted)) and 316 to 1000 nM on DNMT1 (breaklight assay and/or SPA assay, repeated experimental runs, read-out: average pIC50 against DNMT1 (converted)).
For the compound `Nc1ncn([C@H]2C[C@H](O)[C@@H](CO)O2)c(=O)n1` [5-aza-2′-deoxycytidine (decitabine), 5-aza-2′-deoxycytidine], the “induction of fetal hemoglobin” value in experiment [1] is listed as “known inducers of fetal hemoglobin”. Besides, the “fetal hemoglobin in patients” value in experiment [2] is “caused increases in fetal hemoglobin”.
As to `CN(C)C1CCCN(c2nc(SC(C(N)=O)c3ccccc3)c(C#N)c(C3CC3)c2C#N)C1` (stereo not drawn) [Example 18, 2-((3,5-Dicyano-4-cyclopropyl-6-(3-(dimethylamino)piperidin-1-yl)pyridin-2-yl)thio)-2-phenylacetamide], the EC50 in experiment [3] is less than 316 nM. The pEC50 in the experiment with MV-4-11 AML cells was 4.50 to 6.00. Moreover, the “DNMT1 BioChemical (pIC50 category)” value at DNMT1 (binned activity in either the breaklight or the SPA assay) is “D (Category D: ≥6.5)”.

In general, pIC50 refers to the IC50 on a negative log10 scale, so that one unit is a factor of ten. As a reminder, the pEC50 is the EC50 on a negative log10 scale, so that one unit is a factor of ten.
